Test results published in PMC8430704, “Novel Sulfonamide-Based Carbamates as Selective Inhibitors of BChE” (International Journal of Molecular Sciences, 2021).

Legend:
AChE from electric eel = molecular target: T1, AChE from electric eel (Electrophorus electricus, UniProt O42275); experiment: AChE inhibition, modified Ellman's method; format: biochemical
T1 construct: from tissue
Protocol: (§1) The ability of all synthesized derivatives to inhibit eeAChE (acetylcholinesterase from electric eel, Electrophorus electricus) and eqBChE (butyrylcholinesterase from equine serum) was determined in vitro using the modified Ellman´s method. […] Ellmanʼs method is widely used for measuring cholinesterase activity and the efficiency of cholinesterase inhibitors. The principle of this simple method is the determination of the SH and -S-S- groups. The activity of the cholinesterase is measured indirectly by quantifying the concentration of 2-nitro-5-sulfanylbenzoic acid ion formed in the reaction between 5,5′-dithiobis-2-nitrobenzoic acid (DTNB) and thiocholine (i.e., the product of the acetylthiocholine hydrolysis catalysed by cholinesterase).
(§2) All studied compounds were dissolved in DMSO (concentration 0.01 M) and diluted in demineralized water (concentration 0.001 M). The ability of the studied compounds to inhibit eeAChE and eqBChE was determined using modified Ellman´s method at 25 °C in the presence of phosphate buffered saline (PBS, 0.1 M, pH 7.4) in a glass cuvette with 1 cm optical path. The enzyme activity in the total reaction mixture (2 mL) was 0.2 U/mL; the concentration of acetylthiocholine (ATCh) or butyrylthiocholine (BTCh) was 40 μM; and the concentration of DTNB was 0.1 mM for all reactions. The inhibitory activity of the studied derivatives was evaluated based on the ratio v0/vi (v0 is the rate of ATCh or BTCh hydrolysis in the absence of the inhibitor, vi is the rate of ATCh or BTCh hydrolysis in the presence of the inhibitor). The IC50 value was obtained from the dependence v0/vi on the concentration of the tested compound (inhibitor).
(§3) The determination of v0 was done as follows. Into the cuvette, PBS (0.1 M, pH 7.4), DTNB, and ATCh (BTCh) were placed. The enzymatic reaction was started by adding the enzyme. […] The measurement was performed at least in triplicate, and average v0 was determined.
(§4) Then, vi (for the given concentration of inhibitor) was determined. Into the cuvette, DTNB, ATCh (BTCh), a chosen volume of the suitably diluted inhibitor (to achieve the required concentration of inhibitor in the total reaction mixture), and a certain volume of PBS (to achieve the total volume of the reaction mixture 2 mL after adding the enzyme) were placed. The enzymatic reaction was started by adding the enzyme. […] Five different concentrations of the inhibitor were used, and each measurement was performed at least in duplicate.

BChE from equine serum [1] = molecular target: T2, BChE from equine serum (Equus caballus, UniProt P81908); experiment: BChE inhibition, modified Ellman's method; format: biochemical; conditions: for IC50: IC50 (µM) BChE, eqBChE, modified Ellman's method, 25 °C, PBS pH 7.4, mean ± SD, n = 3; for SI (selectivity index) = IC50 (AChE)/IC50 (BChE): value over 1 = more potent inhibition of BChE; for fold higher inhibitory activity against BChE than rivastigmine: ratio of BChE IC50 vs RIV
T2 construct: butyrylcholinesterase from equine serum; from tissue; host or cells: equine serum
T2 sequence (P81908 whole entry): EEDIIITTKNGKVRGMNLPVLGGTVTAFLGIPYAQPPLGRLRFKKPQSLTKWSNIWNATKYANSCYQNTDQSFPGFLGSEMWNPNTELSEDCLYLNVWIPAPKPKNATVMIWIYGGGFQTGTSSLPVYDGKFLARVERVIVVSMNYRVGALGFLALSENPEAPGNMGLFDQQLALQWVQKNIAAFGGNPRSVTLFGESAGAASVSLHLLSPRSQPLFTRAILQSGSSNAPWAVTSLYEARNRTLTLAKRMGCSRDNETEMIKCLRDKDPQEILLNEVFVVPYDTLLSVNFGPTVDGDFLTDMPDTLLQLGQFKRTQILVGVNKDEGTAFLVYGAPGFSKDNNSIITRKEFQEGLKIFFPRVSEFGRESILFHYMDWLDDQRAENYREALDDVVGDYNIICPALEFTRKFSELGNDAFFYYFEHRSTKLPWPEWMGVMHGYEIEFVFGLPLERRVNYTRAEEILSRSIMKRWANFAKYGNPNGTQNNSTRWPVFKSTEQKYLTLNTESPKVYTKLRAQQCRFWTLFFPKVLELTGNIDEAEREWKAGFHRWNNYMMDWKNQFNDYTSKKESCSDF
Protocol: Based on IC50 values for both cholinesterases, selectivity indexes (SI) as the ratio of IC50 for AChE/IC50 for BChE to quantify the preference for BChE were calculated.
as §1, §2, §3, §4

human BChE [2] = conditions: cited from earlier work
human BChE [3] = conditions: cited from earlier work; remark: listed apart in the source
BChE from equine serum [4] = molecular target: T2, BChE from equine serum; experiment: Reactivation (decarbamylation) of inhibited BChE; format: biochemical; conditions: BChE from equine serum inhibited ≥ 95%, dilution into PBS
Protocol: The procedure is described in Section 3.4.
Monitoring of enzyme reactivation was performed as follows. […] The excess inhibitor was removed by dilution into PBS. Samples were withdrawn at successive time points and assayed to measure recovery of enzymatic activity (Ellman´s method was used). […] All experiments were performed in duplicate at least.

BChE from equine serum [5] = molecular target: T2, BChE from equine serum; experiment: Carbamylation of BChE (progressive inhibition kinetics); format: biochemical; conditions: from kobs vs. inhibitor concentration
Protocol: The evaluation of BChE carbamylation was performed on the basis of the measured dependences % residual activity vs. time in the presence of appropriate concentration of inhibitor. […] These dependences were evaluated by non-linear regression and the pseudo-first-order rate constants kobs for progressive inhibition at several inhibitor concentrations were obtained.
The decrease in enzyme activity over time due to inhibitor binding was monitored by the Ellman´s method. Pursuant the procedure described in Carletti [86], the determination was performed subsequently: the reaction mixture containing PBS (0.1 M, pH 7.4), BChE and chosen inhibitor in an appropriate concentration was prepared and intensively stirred. In given times DTNB and BTCh were added to the sample withdrawn from stirred reaction mixture, quickly mixed and absorbance was measured. Consequently, the enzyme activity was determined. Based on knowledge of enzyme activity in the absence of the inhibitor (i.e., 100% activity), the percentages of residual activity in presence of the inhibitor were calculated. Then the dependence of percentage of residual activity vs. time was constructed [87]. By nonlinear regression of these dependences the values of kobs were obtained and subsequently rate constants for carbamylation were calculated. All experiments were performed in duplicate at least.

[6] = Preliminary stability test (decomposition in buffer, HPLC)
Protocol: pH (6, 7.4, 8). Measurement of these degradations was performed by HPLC in reverse phase
acetonitrile/water (98:2). The compound was stirred in a tempered buffer (37 °C) of appropriate
pH and a sample was taken for HPLC analysis at a specified time.

T1 sequence (O42275 24-633): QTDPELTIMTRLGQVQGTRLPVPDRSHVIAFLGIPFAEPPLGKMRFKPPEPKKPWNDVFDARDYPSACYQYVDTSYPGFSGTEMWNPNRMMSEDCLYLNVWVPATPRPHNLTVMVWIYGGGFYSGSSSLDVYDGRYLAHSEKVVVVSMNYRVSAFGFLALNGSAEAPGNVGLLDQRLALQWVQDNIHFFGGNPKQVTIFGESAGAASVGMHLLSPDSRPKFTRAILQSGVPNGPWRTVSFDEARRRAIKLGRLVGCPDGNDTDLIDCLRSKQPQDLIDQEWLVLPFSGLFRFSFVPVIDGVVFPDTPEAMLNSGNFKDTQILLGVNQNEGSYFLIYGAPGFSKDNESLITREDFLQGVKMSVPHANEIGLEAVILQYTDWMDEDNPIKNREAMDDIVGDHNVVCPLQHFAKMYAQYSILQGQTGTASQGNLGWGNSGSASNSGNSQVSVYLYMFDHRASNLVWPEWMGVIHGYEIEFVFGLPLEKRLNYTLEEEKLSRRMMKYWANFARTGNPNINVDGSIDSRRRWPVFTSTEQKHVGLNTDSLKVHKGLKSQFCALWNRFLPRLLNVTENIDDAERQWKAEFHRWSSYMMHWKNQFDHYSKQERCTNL

For `O=C(N[C@@H](Cc1ccccc1)CS(=O)(=O)Nc1ccc2c(c1)OCO2)OCc1ccccc1` [Compound 5h, Benzyl [(2S)-1-(1,3-benzodioxol-5-ylsulfamoyl)-3-phenylpropan-2-yl]carbamate], the IC50 (AChE from electric eel) was 61.39 ± 0.47 µM, the IC50 (BChE from equine serum [1]) was 11.5 ± 0.28 µM and the “SI (selectivity index) = IC50 (AChE)/IC50 (BChE)” value (“SI (selectivity index) = IC50” below) (BChE from equine serum [1]) was 5.32.
With `CC(C)C[C@@H](CS(=O)(=O)Nc1ccccc1)NC(=O)OCc1ccccc1` [Compound 5d, Benzyl [(2S)-4-methyl-1-(phenylsulfamoyl)pentan-2-yl]carbamate] the IC50 (AChE from electric eel) was 55.6 ± 1.38 µM, the IC50 (BChE from equine serum [1]) was 16.54 ± 0.1 µM and the “SI (selectivity index) = IC50” value (BChE from equine serum [1]) was 3.36.
With `CC(C)C[C@@H](CS(=O)(=O)NCc1ccccc1)NC(=O)OCc1ccccc1` [Compound 5c, Benzyl [(2S)-1-(benzylsulfamoyl)-4-methylpentan-2-yl]carbamate] the IC50 (AChE from electric eel) was 91.8 ± 4.89 µM, the IC50 (BChE from equine serum [1]) was 8.52 ± 0.32 µM and the “fold higher inhibitory activity against BChE than rivastigmine” value (BChE from equine serum [1]) was “approximately 5 fold”.
For `CCN(C)C(=O)Oc1cccc([C@H](C)N(C)C)c1` [RIV, rivastigmine], the “reactivation of human BChE after 24 h” value (human BChE [2]; 24 h) is listed as less than 10% and the “bimolecular rate constant for the carbamylation” value (human BChE [3]) is listed as 1500 M⁻¹ s⁻¹.
In the case of `O=C(N[C@@H](Cc1ccccc1)CS(=O)(=O)Nc1ccc(Cl)c(Cl)c1)OCc1ccccc1` [Compound 5g, Benzyl {(2S)-1-[(3,4-dichlorophenyl)sulfamoyl]-3-phenylpropan-2-yl}carbamate], the IC50 (AChE from electric eel) is reported as 78.83 ± 0.63 µM, the IC50 (BChE from equine serum [1]) is reported as 12.6 ± 0.31 µM and the “SI (selectivity index) = IC50” value (BChE from equine serum [1]) is reported as 6.25.
For `O=C(N[C@@H](Cc1ccccc1)CS(=O)(=O)NCc1ccccc1)OCc1ccccc1` [Compound 5b, Benzyl [(2S)-1-(benzylsulfamoyl)-3-phenylpropan-2-yl]carbamate], the IC50 (AChE from electric eel) was 76.9 ± 1.52 µM, the IC50 (BChE from equine serum [1]) was 86.1 ± 1.91 µM and the “SI (selectivity index) = IC50” value (BChE from equine serum [1]) was 0.89.
In the case of `CCN(C)C(=O)Cl` [EMCC, N,N-ethylmethylcarbaryl chloride], the “reactivation of human BChE upon dilution” value (human BChE [2]; upon dilution) is given as “complete and rapid reactivation”.
In the case of `CC(C)C[C@@H](CS(=O)(=O)NCc1ccc(Cl)cc1)NC(=O)OCc1ccccc1` [Compound 5j, Benzyl {(2S)-1-[(4-chlorobenzyl)sulfamoyl]-4-methylpentan-2-yl}carbamate], the “reactivation of BChE after 24 h” value (BChE from equine serum [4]) is reported as 37%, the IC50 (AChE from electric eel) is reported as 67.47 ± 0.37 µM and the IC50 (BChE from equine serum [1]) is reported as 6.57 ± 0.12 µM. The “fold higher inhibitory activity against BChE than rivastigmine” value (BChE from equine serum [1]) was “approximately 5 fold” and the “apparent bimolecular rate constant (ki) of carbamylation” value (BChE from equine serum [5]) was 1.084 ± 0.0535 M⁻¹ s⁻¹.
Work on `CC(C)C[C@@H](CS(=O)(=O)NCc1ccco1)NC(=O)OCc1ccccc1` [Compound 5m, Benzyl {(2S)-1-[(furan-2-ylmethyl)sulfamoyl]-4-methylpentan-2-yl}carbamate] yielded an IC50 (AChE from electric eel) of 131.8 ± 0.42 µM and an IC50 (BChE from equine serum [1]) of 19.99 ± 0.17 µM.
For `CC(C)C[C@@H](CS(=O)(=O)NCc1ccc(F)c(F)c1)NC(=O)OCc1ccccc1` [Compound 5l, Benzyl {(2S)-1-[(3,4-difluorobenzyl)sulfamoyl]-4-methylpentan-2-yl}carbamate], the IC50 (AChE from electric eel) was 92.9 ± 2.47 µM, the IC50 (BChE from equine serum [1]) was 55.6 ± 1.38 µM and the “SI (selectivity index) = IC50” value (BChE from equine serum [1]) was 1.67.
In the case of `COc1ccccc1CNS(=O)(=O)C[C@H](CC(C)C)NC(=O)OCc1ccccc1` [Compound 5k, Benzyl {(2S)-1-[(2-methoxybenzyl)sulfamoyl]-4-methylpentan-2-yl}carbamate], the starting material remaining ([6]; buffer pH 6, 37 °C, after 6 hrs) is reported as 13%, the “substance decomposed in the first hour” value ([6]; buffer pH 6, 37 °C, first hour) is reported as 75% and the starting material remaining ([6]; buffer pH 7.4, 37 °C, 48 hours) is reported as 36%. It also gave a starting material remaining ([6]; buffer pH 8, 37 °C, 4 hours) of 5% and an IC50 (AChE from electric eel) of 150 ± 3.82 µM.
With `CCCNS(=O)(=O)C[C@H](CC(C)C)NC(=O)OCc1ccccc1` [Compound 5e, Benzyl [(2S)-4-methyl-1-(propylsulfamoyl)pentan-2-yl]carbamate] the IC50 (AChE from electric eel) was 108 ± 2.39 µM, the IC50 (BChE from equine serum [1]) was 58.9 ± 1.88 µM and the “SI (selectivity index) = IC50” value (BChE from equine serum [1]) was 1.84.
In the case of `O=C(N[C@@H](Cc1ccccc1)CS(=O)(=O)N[C@@H]1CCCO1)OCc1ccccc1` [Compound 5i, Benzyl {(2S)-1-phenyl-3-[(2S)-tetrahydrofuran-2-ylsulfamoyl]propan-2-yl}carbamate], the IC50 (AChE from electric eel) is reported as 61.7 ± 1.47 µM, the IC50 (BChE from equine serum [1]) is reported as 112 ± 3.41 µM and the “SI (selectivity index) = IC50” value (BChE from equine serum [1]) is reported as 0.55.
For `CC(C)C[C@@H](CS(=O)(=O)Nc1ccc(Cl)c(Cl)c1)NC(=O)OCc1ccccc1` [Compound 5n, Benzyl {(2S)-1-[(3,4-dichlorophenyl)sulfamoyl]-4-methylpentan-2-yl}carbamate], the IC50 (AChE from electric eel) was 95.1 ± 2.77 µM, the IC50 (BChE from equine serum [1]) was 13.5 ± 0.51 µM and the “SI (selectivity index) = IC50” value (BChE from equine serum [1]) was 7.04.
With `C[C@@H](CS(=O)(=O)NCc1ccccc1)NC(=O)OCc1ccccc1` [Compound 5a, Benzyl [(2S)-1-(benzylsulfamoyl)propan-2-yl]carbamate] the IC50 (AChE from electric eel) was 90.6 ± 5.7 µM, the IC50 (BChE from equine serum [1]) was 100 ± 4.26 µM and the “SI (selectivity index) = IC50” value (BChE from equine serum [1]) was 0.90.
In the case of `CC(C)C[C@@H](CS(=O)(=O)NCCc1ccccc1)NC(=O)OCc1ccccc1` [Compound 5f, Benzyl {(2S)-4-methyl-1-[(2-phenylethyl)sulfamoyl]pentan-2-yl}carbamate], the IC50 (AChE from electric eel) is reported as 115 ± 6.22 µM, the IC50 (BChE from equine serum [1]) is reported as 15.3 ± 0.38 µM and the “SI (selectivity index) = IC50” value (BChE from equine serum [1]) is reported as 7.50.
